Data reported in patent US9113629B2, “4-amino-6-(4-substituted-phenyl)-picolinates and 6-amino-2-(4-substituted-phenyl)-pyrimidine-4-carboxylates and their use as herbicides” (DOW AGROSCIENCES LLC, priority 2013, dated 2015).
Read-outs that look alike come from different tables or passages of the source.

Experiments:
[1] = system: Key Broadleaf Weed and Crop Species; assay: Post-emergent Test II herbicidal activity (Table 5); type: in vivo; details: post-emergence, 336 h, 14 days after application; for pest or weed control at 70 g/ha: application rate 70 g ai/ha; for pest or weed control at 140 g/ha: application rate 140 g ai/ha
Outline: (§1)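 Spray rates: a highest rate plus ½×, ¼×, ⅛×, 1/16×, all delivered at 187 L/ha to plants at the first–second true leaf stage. Readout is a visual percent injury score at 14 d, where 100 means complete kill.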

[2] = system: Key Grass and Sedge Weeds as well as Grass Crops; assay: Post-emergent Test II herbicidal activity (Table 6); type: in vivo; details: post-emergence, 336 h; for pest or weed control at 70 g/ha: 70 g ai/ha; for pest or weed control at 140 g/ha: 140 g ai/ha
Outline: as §1

[3] = ABUTH: velvetleaf (Abutilon theophrasti), read-out: Visual Growth Reduction (%) 14 Days After Application, ABUTH
[4] = AMARE: redroot pigweed (Amaranthus retroflexus), read-out: Visual Growth Reduction (%) 14 Days After Application, AMARE
[5] = BRSNN: oilseed-rape, canola (Brassica napus), read-out: Visual Growth Reduction (%) 14 Days After Application, BRSNN
[6] = CHEAL: lambsquarters (Chenopodium album), read-out: Visual Growth Reduction (%) 14 Days After Application, CHEAL
[7] = EPHHL: wild poinsettia (Euphorbia heterophylla), read-out: Visual Growth Reduction (%) 14 Days After Application, EPHHL
[8] = HELAN: sunflower (Helianthus annuus), read-out: Visual Growth Reduction (%) 14 Days After Application, HELAN
[9] = VIOTR: wild pansy (Viola tricolor), read-out: Visual Growth Reduction (%) 14 Days After Application, VIOTR
[10] = CYPES: yellow nutsedge (Cyperus esculentus), read-out: Visual Growth Reduction (%) 14 Days After Application, CYPES
[11] = DIGSA: crabgrass (Digitaria sanguinalis), read-out: Visual Growth Reduction (%) 14 Days After Application, DIGSA
[12] = ECHCG: barnyardgrass (Echinochloa crus-galli), read-out: Visual Growth Reduction (%) 14 Days After Application, ECHCG
[13] = ORYSA: rice (Oryza sativa), crop, read-out: Visual Growth Reduction (%) 14 Days After Application, ORYSA
[14] = SETFA: giant foxtail (Setaria faberi), read-out: Visual Growth Reduction (%) 14 Days After Application, SETFA
[15] = SORVU: grain sorghum (Sorghum vulgare), read-out: Visual Growth Reduction (%) 14 Days After Application, SORVU
[16] = TRZSS (wheat, Triticum aestivum), crop, read-out: Visual Growth Reduction (%) 14 Days After Application, TRZSS
[17] = ZEAMX: maize, corn (Zea mays), crop, read-out: Visual Growth Reduction (%) 14 Days After Application, ZEAMX

## COC(=O)c1nc(-c2ccc(OC(F)F)c(F)c2F)c(F)c(N)c1Cl [Compound 103]
[1]; [3]
  pest or weed control at 70 g/ha: 45 to 59%
  pest or weed control at 140 g/ha: 45 to 59%
[1]; [4]
  pest or weed control at 70 g/ha: 0 to 29%
  pest or weed control at 140 g/ha: 0 to 29%
[1]; [5]
  pest or weed control at 70 g/ha: 0 to 29%
  pest or weed control at 140 g/ha: 30 to 44%
[1]; [6]
  pest or weed control at 70 g/ha: 0 to 29%
  pest or weed control at 140 g/ha: 85 to 94%
[1]; [7]
  pest or weed control at 70 g/ha: 0 to 29%
  pest or weed control at 140 g/ha: 0 to 29%
[1]; [8]
  pest or weed control at 70 g/ha: 75 to 84%
  pest or weed control at 140 g/ha: 75 to 84%
[1]; [9]
  pest or weed control at 70 g/ha: 0 to 29%
  pest or weed control at 140 g/ha: 0 to 29%
[2]; [10]
  pest or weed control at 70 g/ha: 0 to 29%
  pest or weed control at 140 g/ha: 45 to 59%
[2]; [11]
  pest or weed control at 70 g/ha: 0 to 29%
  pest or weed control at 140 g/ha: 0 to 29%
[2]; [12]
  pest or weed control at 70 g/ha: 0 to 29%
  pest or weed control at 140 g/ha: 0 to 29%
[2]; [13]
  pest or weed control at 70 g/ha: 0 to 29%
  pest or weed control at 140 g/ha: 0 to 29%
[2]; [14]
  pest or weed control at 70 g/ha: 0 to 29%
  pest or weed control at 140 g/ha: 0 to 29%
[2]; [15]
  pest or weed control at 70 g/ha: 0 to 29%
  pest or weed control at 140 g/ha: 0 to 29%
[2]; [16]
  pest or weed control at 70 g/ha: 0 to 29%
  pest or weed control at 140 g/ha: 0 to 29%
[2]; [17]
  pest or weed control at 70 g/ha: 0 to 29%
  pest or weed control at 140 g/ha: 0 to 29%
